The source of these data is patent publication US9381187B2, “Radiation countermeasure agents” (PALOMA PHARMACEUTICALS, INC., priority 2011, dated 2016).

The test system of assay [1] is HOS cells (human osteoblast cells). The assay can be described thus: Cellular radioprotection, colony formation assay (cell survival after gamma radiation). It is filed as cell-based. The settings on record: for survival: HOS cells under radioprotective treatment conditions (FIG. 2); for DRF: in vitro comparison with amifostine, HOS cells, gamma radiation (FIG. 2). On the procedure: Radiation protection by P529 is evaluated using a human osteoblast cell model (HOS cells). The effect of P529 (10 μM, 4 hr) on cell survival after radiation is assessed; cell survival was measured using the colony formation assay.

The next assay relates to HOS cells. The experiment in a line: Chromosomal radiation protection, metaphase aberration scoring. In kind it is cell-based, human. The note with it: for Breaks / Fragments / Percent Aberrant Cells / Rings + Dicentrics: Radiation + P529 (25 uM, 12 hrs pre-radiation). On the procedure: Non-tumorigenic immortalized human osteosarcoma cells (HOS) are exposed to increasing doses of gamma radiation (O-4 Gy; 6.6 Gy/min). Control cells receive no drug; Drug-treated cells receive P529 (25 uM, 12 hrs pre-radiation). Metaphase plates are prepared from control and drug-treated cells (Gupta, Br J Radiol, 59:625 1986). A total of 100 metaphases are examined per group/dose. Aberrant metaphases, chromatid and chromosome breaks, fragments, rings, and dicentrics are scored under a light microscope. Aberrations are identified using criteria given by Savage (J Med Genetics 12:103-122, 1976).

For assay [2], the system named is C57 mice exposed to gamma radiation. The assay can be described thus: Mitigation of radiation effect in vivo (TBI 9 Gy). The settings on record: female C57 mice, 9 Gy gamma radiation; ip 100 μl on day 1 and days 3-26. The source says:
Sixteen female C57 mice are exposed to gamma radiation (9 Gy). Group 1 received radiation only (no drug). Group 2 received radiation and P529 as noted in the following schedule: […]

For the molecule `COc1ccc(COc2cc3oc(=O)c4cc(C(C)O)ccc4c3cc2OC)cc1` (stereo not shown) [P529, 8-(1-Hydroxy-ethyl)-2-methoxy-3-(4-methoxy-benzyloxy)-benzo[c]chromen-6-one], in assay [1] (HOS cells pretreated 10 μM for 4 hr prior to gamma radiation, at the 0.005 survival fraction (FIG. 1)), the “dose-reduction factor (DRF)” value is 1.38. Besides, in assay [1], the survival was determined as 0.99 and the DRF is recorded as 1.34. Moreover, in assay [1] (pretreated 10 μM for 4 hr prior to radiation exposure), the “radiation resistance of cells” value was “significant radiation resistance”. In the assay with HOS cells (dose 0 Gy), the Breaks result is “.0016 ± .0002”, the Fragments entry is on record as “.007 ± .0009”, the “Percent Aberrant Cells” value is “.66 ± .07%” and the “Rings + Dicentrics” value came to 0.00 ± 0.0. Besides, in the assay with HOS cells (dose 1 Gy), the Breaks entry was “.0013 ± .0002”, the Fragments result is listed as “.05 ± .006”, the “Percent Aberrant Cells” value is 3.1 ± .033% and the “Rings + Dicentrics” value came to 0.00 ± 0.0. Further, in the assay on HOS cells (dose 2 Gy), the Breaks entry is reported as “.0018 ± .0002”, the Fragments result is given as “.118 ± .022”, the “Percent Aberrant Cells” value is 5.0 ± .052% and the “Rings + Dicentrics” value is “.003 ± .0004”. Moreover, in the assay on HOS cells (dose 3 Gy), the Breaks entry is recorded as “.0022 ± .0003”, the Fragments entry was “.23 ± .028”, the “Percent Aberrant Cells” value was 11.4 ± 1.22% and the “Rings + Dicentrics” value was “.005 ± .0004”. Further, in the assay on HOS cells (dose 4 Gy), the Breaks entry is “.0039 ± .0004”, the Fragments result is recorded as “.30 ± .031”, the “Percent Aberrant Cells” value is given as 19.5 ± 1.29% and the “Rings + Dicentrics” value was “.017 ± .002”. The “chromosomal protection from radiation exposure” value in the assay with HOS cells (human HOS cells, Table 2) was “can provide chromosomal protection from radiation exposure”. Further, the “mitigation of radiation effect and damage” value in assay [2] is reported as “can mitigate the radiation effect”.

In assay [1], `NCCCNCCSP(=O)(O)O` [amifostine, reference compound] had a survival of 0.35 and a DRF of 1.45.
